Data: ChEMBL document CHEMBL1201862, “PubChem BioAssay data set” (2004)
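All cell lines were grown in 96-well plates and treated with compound for 48 hours. GI50: concentration for 50% inhibition of growth.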 Activity calls are given as the source filed them. Cut-off read from the data, not from the text of the source: active = GI50 up to about 1.1 µM and inactive = higher.

Assays:
Assay in all cases: NCI anticancer screen, dose series, 48 h
SK-OV-3 = system: SK-OV-3
UO-31 = system: UO-31
SNB-19 = system: SNB-19
OVCAR-8 = system: OVCAR-8
SNB-78 = system: SNB-78
DLD-1 = system: DLD-1
NCI-H23 = system: NCI-H23
SF-295 = system: SF-295
A498 = system: A498
KM-20L2 = system: KM-20L2
NCI-H522 = system: NCI-H522
EKVX = system: EKVX
OVCAR-5 = system: OVCAR-5
786-0 = system: 786-0
Malme-3M = system: Malme-3M
HCT-116 = system: HCT-116
XF498 = system: XF498
OVCAR-3 = system: OVCAR-3
HCC 2998 = system: HCC 2998
M14 = system: M14
SK-MEL-28 = system: SK-MEL-28
CAKI-1 = system: CAKI-1
HOP-18 = system: HOP-18
RXF 393 = system: RXF 393
CCRF-CEM = system: CCRF-CEM
LOX IMVI = system: LOX IMVI
RPMI-8226 = system: RPMI-8226
M19-MEL = system: M19-MEL
U-251 = system: U-251
SR = system: SR
HT-29 = system: HT-29
SK-MEL-5 = system: SK-MEL-5
SF-268 = system: SF-268
K562 = system: K562
UACC-257 = system: UACC-257
SF-539 = system: SF-539
DMS-114 = system: DMS-114
TK-10 = system: TK-10
IGROV-1 = system: IGROV-1
NCI-H460 = system: NCI-H460
HL-60 = system: HL-60
HOP-92 = system: HOP-92
HOP-62 = system: HOP-62
MOLT-4 = system: MOLT-4
SW-620 = system: SW-620
A549 = system: A549
KM12 = system: KM12
SN12C = system: SN12C
LXFL 529 = system: LXFL 529
NCI-H226 = system: NCI-H226
ACHN = system: ACHN
COLO 205 = system: COLO 205
HCT-15 = system: HCT-15
UACC-62 = system: UACC-62
SK-MEL-2 = system: SK-MEL-2
SNB-75 = system: SNB-75
OVCAR-4 = system: OVCAR-4
DMS-273 = system: DMS-273

`O=C(/C=C/c1ccccc1)/C=C/c1ccccc1O` was tested. Which GI50 (SK-OV-3) did it give?
The GI50 was 19.1 µM (inactive).

And the GI50 (UO-31)?
Its GI50 is 16.4 µM (inactive).

What about the GI50 (SNB-19) of the same compound?
Its GI50 is 23.3 µM (inactive).

What about the GI50 (OVCAR-8) of the same compound?
Its GI50 is 17 µM (inactive).

And the GI50 (SNB-78)?
The GI50 was 37.3 µM (inactive).

And the GI50 (DLD-1)?
Its GI50 is 18 µM (inactive).

What about the GI50 (NCI-H23) of the same compound?
Its GI50 is 24.9 µM (inactive).

What about the GI50 (SF-295) of the same compound?
The GI50 was 24.4 µM (inactive).

What about the GI50 (A498) of the same compound?
The GI50 was 30.1 µM (inactive).

What about the GI50 (KM-20L2) of the same compound?
The GI50 was 19.1 µM (inactive).

What about the GI50 (NCI-H522) of the same compound?
The GI50 was 15.5 µM (inactive).

What about the GI50 (EKVX) of the same compound?
Its GI50 is 18.8 µM (inactive).

And the GI50 (OVCAR-5)?
Its GI50 is 29.3 µM (inactive).

What about the GI50 (786-0) of the same compound?
Its GI50 is 16.7 µM (inactive).

And the GI50 (Malme-3M)?
The GI50 was < 0.01 µM (active).

And the GI50 (HCT-116)?
The GI50 was 15.1 µM (inactive).

And the GI50 (XF498)?
Its GI50 is 49.1 µM (inactive).

What about the GI50 (OVCAR-3) of the same compound?
Its GI50 is 0.0401 µM (active).

And the GI50 (HCC 2998)?
The GI50 was 12.5 µM (inactive).

What about the GI50 (M14) of the same compound?
Its GI50 is 21 µM (inactive).

And the GI50 (SK-MEL-28)?
Its GI50 is 34.6 µM (inactive).

And the GI50 (CAKI-1)?
Its GI50 is 22 µM (inactive).

And the GI50 (HOP-18)?
Its GI50 is 0.488 µM (active).

And the GI50 (RXF 393)?
Its GI50 is 20.8 µM (inactive).

And the GI50 (CCRF-CEM)?
Its GI50 is 17 µM (inactive).

And the GI50 (LOX IMVI)?
Its GI50 is 18.2 µM (inactive).

What about the GI50 (RPMI-8226) of the same compound?
Its GI50 is 16.4 µM (inactive).

What about the GI50 (M19-MEL) of the same compound?
The GI50 was 17.9 µM (inactive).

What about the GI50 (U-251) of the same compound?
Its GI50 is 17.6 µM (inactive).

What about the GI50 (SR) of the same compound?
The GI50 was 26.6 µM (inactive).

And the GI50 (HT-29)?
Its GI50 is 24.4 µM (inactive).

What about the GI50 (SK-MEL-5) of the same compound?
Its GI50 is 20.1 µM (inactive).

What about the GI50 (SF-268) of the same compound?
The GI50 was 32.9 µM (inactive).

What about the GI50 (K562) of the same compound?
Its GI50 is 16.4 µM (inactive).

What about the GI50 (UACC-257) of the same compound?
The GI50 was 20.8 µM (inactive).

And the GI50 (SF-539)?
The GI50 was 22 µM (inactive).

And the GI50 (DMS-114)?
Its GI50 is 17.8 µM (inactive).

And the GI50 (TK-10)?
The GI50 was 30.1 µM (inactive).

What about the GI50 (IGROV-1) of the same compound?
The GI50 was 18.7 µM (inactive).

And the GI50 (NCI-H460)?
Its GI50 is 19.1 µM (inactive).

And the GI50 (HL-60)?
Its GI50 is 12.9 µM (inactive).

What about the GI50 (HOP-92) of the same compound?
Its GI50 is 83.8 µM (inactive).

And the GI50 (HOP-62)?
The GI50 was 38.8 µM (inactive).

And the GI50 (MOLT-4)?
The GI50 was 19.8 µM (inactive).

What about the GI50 (SW-620) of the same compound?
Its GI50 is 11.6 µM (inactive).

What about the GI50 (A549) of the same compound?
The GI50 was 23.9 µM (inactive).

And the GI50 (KM12)?
Its GI50 is 17.8 µM (inactive).

And the GI50 (SN12C)?
The GI50 was 16.2 µM (inactive).

And the GI50 (LXFL 529)?
The GI50 was 16.8 µM (inactive).

What about the GI50 (NCI-H226) of the same compound?
Its GI50 is 22 µM (inactive).

And the GI50 (ACHN)?
The GI50 was 19.4 µM (inactive).

What about the GI50 (COLO 205) of the same compound?
The GI50 was 17.3 µM (inactive).

What about the GI50 (HCT-15) of the same compound?
Its GI50 is 15.9 µM.

And the GI50 (UACC-62)?
The GI50 was 19 µM (inactive).

And the GI50 (SK-MEL-2)?
The GI50 was 59.3 µM (inactive).

How did the GI50 (SK-OV-3) turn out when `CC1=C(C(=O)Nc2ccccc2)C(c2cccc3ccccc23)C(C(=O)Nc2ccccc2)=C(C)N1` was run?
The GI50 was 17.1 µM (inactive).

What about the GI50 (UO-31) of the same compound?
The GI50 was 21.6 µM (inactive).

And the GI50 (SNB-19)?
Its GI50 is 16.4 µM (inactive).

What about the GI50 (OVCAR-8) of the same compound?
The GI50 was 16.7 µM (inactive).

And the GI50 (SNB-78)?
The GI50 was 28.7 µM (inactive).

What about the GI50 (DLD-1) of the same compound?
Its GI50 is 28.2 µM (inactive).

And the GI50 (NCI-H23)?
The GI50 was 21.7 µM (inactive).

What about the GI50 (SF-295) of the same compound?
Its GI50 is 17.5 µM (inactive).

And the GI50 (A498)?
The GI50 was 24.1 µM (inactive).

And the GI50 (KM-20L2)?
Its GI50 is 19.3 µM (inactive).

What about the GI50 (NCI-H522) of the same compound?
Its GI50 is 16 µM (inactive).

And the GI50 (EKVX)?
Its GI50 is 11.8 µM (inactive).

And the GI50 (OVCAR-5)?
Its GI50 is 23 µM (inactive).

What about the GI50 (786-0) of the same compound?
The GI50 was 22.4 µM (inactive).

And the GI50 (Malme-3M)?
The GI50 was 18.8 µM (inactive).

What about the GI50 (HCT-116) of the same compound?
Its GI50 is 15.4 µM (inactive).

And the GI50 (OVCAR-3)?
The GI50 was 12.8 µM (inactive).

And the GI50 (HCC 2998)?
Its GI50 is 20.4 µM (inactive).

And the GI50 (M14)?
Its GI50 is 17.7 µM (inactive).

What about the GI50 (SK-MEL-28) of the same compound?
The GI50 was 18 µM (inactive).

And the GI50 (CAKI-1)?
Its GI50 is 15.6 µM (inactive).

And the GI50 (HOP-18)?
Its GI50 is 24 µM (inactive).

What about the GI50 (RXF 393) of the same compound?
Its GI50 is 14.4 µM (inactive).

What about the GI50 (CCRF-CEM) of the same compound?
Its GI50 is 26.7 µM (inactive).

What about the GI50 (LOX IMVI) of the same compound?
The GI50 was 16.7 µM (inactive).

And the GI50 (M19-MEL)?
The GI50 was 19 µM (inactive).

What about the GI50 (U-251) of the same compound?
Its GI50 is 16.5 µM (inactive).

What about the GI50 (SR) of the same compound?
The GI50 was 3.11 µM (inactive).

And the GI50 (HT-29)?
The GI50 was 18.8 µM (inactive).

What about the GI50 (SK-MEL-5) of the same compound?
The GI50 was 19.3 µM (inactive).

And the GI50 (SF-268)?
The GI50 was 21.5 µM (inactive).

What about the GI50 (K562) of the same compound?
Its GI50 is 30.4 µM (inactive).

What about the GI50 (UACC-257) of the same compound?
Its GI50 is 18.2 µM (inactive).

What about the GI50 (SF-539) of the same compound?
The GI50 was 20.4 µM (inactive).

And the GI50 (DMS-114)?
The GI50 was 24.9 µM (inactive).

What about the GI50 (TK-10) of the same compound?
Its GI50 is 31.5 µM (inactive).

What about the GI50 (IGROV-1) of the same compound?
Its GI50 is 25.6 µM (inactive).

And the GI50 (SNB-75)?
The GI50 was 15.6 µM (inactive).

And the GI50 (HL-60)?
The GI50 was 17.1 µM (inactive).

What about the GI50 (HOP-92) of the same compound?
The GI50 was 24 µM (inactive).

What about the GI50 (HOP-62) of the same compound?
The GI50 was 18.7 µM (inactive).

And the GI50 (MOLT-4)?
The GI50 was 0.767 µM (active).

And the GI50 (OVCAR-4)?
Its GI50 is > 10 µM (inactive).

What about the GI50 (SW-620) of the same compound?
The GI50 was 22.4 µM (inactive).

What about the GI50 (A549) of the same compound?
Its GI50 is 28 µM (inactive).

And the GI50 (SN12C)?
Its GI50 is 18 µM (inactive).

What about the GI50 (LXFL 529) of the same compound?
Its GI50 is 15.9 µM (inactive).

What about the GI50 (NCI-H226) of the same compound?
The GI50 was 1.74 µM (inactive).

What about the GI50 (ACHN) of the same compound?
The GI50 was 24.2 µM (inactive).

What about the GI50 (COLO 205) of the same compound?
Its GI50 is 13.4 µM (inactive).

And the GI50 (HCT-15)?
Its GI50 is 16.2 µM.

And the GI50 (UACC-62)?
The GI50 was 13.8 µM (inactive).

What about the GI50 (DMS-273) of the same compound?
The GI50 was 19.1 µM (inactive).

And the GI50 (SK-MEL-2)?
Its GI50 is 17 µM (inactive).
